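96-well plates; 48 h exposure; 5 concentrations. Endpoints by linear interpolation between flanking doses. Not reached: highest tested concentration assigned. Here, GI50 denotes the concentration required for 50% inhibition of growth.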 Activity calls are given as the source filed them. Cut-off read from the data, not from the text of the source: active = GI50 up to about 1.1 µM and inactive = higher. Some results are limits rather than exact numbers.

The results in this text go back to ChEMBL document CHEMBL1201862, “PubChem BioAssay data set” (2004).

Some test systems named below: SF-295; Hs-578T; SNB-75; IGROV-1; MDA-MB-435; HOP-92; OVCAR-3; SN12C; HCT-116; NCI/ADR-RES; HCC 2998; SF-268; LOX IMVI; SF-539; UO-31; MDA-MB-231; CAKI-1; T47D; KM12; 786-0.
Assay in all cases: NCI anticancer screen, dose series, 48 h

In the case of `Brc1ccc2c(-c3nc(-c4c[nH]c5ccccc45)cs3)c[nH]c2c1`, the GI50 with SF-295 is 20.3 µM (inactive); in the assay on Hs-578T it was > 100 µM (inactive); in the assay with SNB-75 it was 37.4 µM (inactive); in the assay with IGROV-1 it was 30.5 µM (inactive); with MDA-MB-435 it was 34.6 µM (inactive); in the assay on HOP-92, 43.1 µM (inactive). Moreover, the GI50 was 39.7 µM (inactive) with OVCAR-3; 42.9 µM (inactive) with SN12C; 23.8 µM (inactive) in the assay with HCT-116; 27 µM (inactive) in the assay on NCI/ADR-RES; 24 µM (inactive) with HCC 2998; > 56.8 µM (inactive) with SF-268. For the same compound, the GI50 in the assay on LOX IMVI was 10.4 µM (inactive); in the assay on SF-539, 15.6 µM (inactive); in the assay with UO-31 it was 19.5 µM (inactive); in the assay with MDA-MB-231, 47.1 µM (inactive); in the assay with CAKI-1, 30.9 µM (inactive); with T47D it was 30.9 µM (inactive). Besides, the GI50 with KM12 was 10 µM (inactive); in the assay on 786-0 it was 21 µM (inactive).
On to `Cc1nnc(Sc2nc(C#N)c(C#N)nc2Sc2nnc(C)s2)s1`, for which the GI50 is 22.8 µM (inactive) with SF-295; 14.6 µM (inactive) with Hs-578T; 28.6 µM (inactive) in the assay on SNB-75; 7.24 µM (inactive) with IGROV-1; 12.7 µM (inactive) in the assay on MDA-MB-435; 2.14 µM (inactive) in the assay on HOP-92. The GI50 is 6.32 µM (inactive) in the assay with OVCAR-3; 9.33 µM (inactive) in the assay with SN12C; 10.3 µM (inactive) in the assay on HCT-116; 17.7 µM (inactive) in the assay on NCI/ADR-RES; 20 µM (inactive) in the assay with HCC 2998; 23.6 µM (inactive) in the assay with SF-268. In addition, the GI50 in the assay with LOX IMVI was 2.72 µM (inactive); in the assay with SF-539, 12 µM (inactive); with UO-31, 3.35 µM (inactive); in the assay on MDA-MB-231 it was 15.9 µM (inactive); with CAKI-1, 2.32 µM (inactive); in the assay on T47D, 2.54 µM (inactive). Moreover, the results for the GI50 with KM12 and in the assay on 786-0 were 23.8 µM (inactive) and 4.13 µM (inactive), respectively.
`C=CCNC1=C2C[C@@H](C)C[C@@H](OC)[C@@H](OC(=O)CCCN)[C@H](C)/C=C(\C)[C@@H](OC(N)=O)[C@H](OC)/C=C\C=C(/C)C(=O)NC(=CC1=O)C2=O`: the GI50 in the assay with SF-295 is 15.9 µM (inactive); in the assay on Hs-578T, 20.9 µM (inactive); in the assay on SNB-75, 10.4 µM (inactive); in the assay with IGROV-1, 13.5 µM (inactive); with MDA-MB-435, 20.3 µM (inactive); with HOP-92, 14.7 µM (inactive). In addition, the GI50 in the assay with OVCAR-3 is 16.7 µM (inactive); in the assay with SN12C, 17.4 µM (inactive); with HCT-116 it was 15.7 µM (inactive); in the assay with NCI/ADR-RES, > 100 µM (inactive); in the assay on HCC 2998, 15.5 µM (inactive); in the assay with SF-268 it was 13.2 µM (inactive). In addition, the GI50 with LOX IMVI was 5.45 µM (inactive); in the assay with SF-539, 12.6 µM (inactive); in the assay on UO-31, 18.4 µM (inactive); with MDA-MB-231 it was 15 µM (inactive); in the assay on CAKI-1, 19.8 µM (inactive); in the assay on T47D, 27.4 µM (inactive). Further, the GI50 is 4.14 µM (inactive) in the assay on KM12 and 17.1 µM (inactive) with 786-0.
In the case of `C/C(=N\NC(=S)N1CCN(c2ccccn2)CC1)c1cccc2cccnc12`, the GI50 in the assay with SF-295 is 3.37 µM (inactive); in the assay with Hs-578T, 9.08 µM (inactive); in the assay with SNB-75 it was 13.1 µM (inactive); in the assay with IGROV-1 it was 5.79 µM (inactive); with MDA-MB-435 it was 6.31 µM (inactive); in the assay with HOP-92 it was 3.98 µM (inactive). In addition, the GI50 was 3.44 µM (inactive) in the assay on OVCAR-3; 4.07 µM (inactive) with SN12C; 2.39 µM (inactive) in the assay with HCT-116; 3.35 µM (inactive) in the assay on NCI/ADR-RES; 5.47 µM (inactive) in the assay with HCC 2998; 5.08 µM (inactive) in the assay on SF-268. Moreover, the GI50 with LOX IMVI is 3.59 µM (inactive); in the assay with SF-539 it was 4.11 µM (inactive); with UO-31 it was 4.36 µM (inactive); with MDA-MB-231 it was 4.42 µM (inactive); in the assay with CAKI-1, 6.32 µM (inactive); with T47D, 3.68 µM (inactive). The GI50 is 3.9 µM (inactive) in the assay with KM12 and 4.29 µM (inactive) with 786-0.
`c1cnc2c(c1)ccc1cccnc12`: the GI50 with SF-295 was 3.52 µM (inactive); in the assay with Hs-578T, > 36.3 µM (inactive); with SNB-75 it was 13.6 µM (inactive); with IGROV-1, 4.26 µM (inactive); in the assay on MDA-MB-435, 5.21 µM (inactive); with HOP-92, 8.91 µM (inactive). The GI50 was 6.67 µM (inactive) with OVCAR-3; 3.27 µM (inactive) with SN12C; 3.78 µM (inactive) in the assay on HCT-116; 2.37 µM (inactive) with NCI/ADR-RES; 6.7 µM (inactive) in the assay on HCC 2998; 4.07 µM (inactive) in the assay with SF-268. In addition, the GI50 in the assay on LOX IMVI was 3.61 µM (inactive); in the assay on SF-539, 3.72 µM (inactive); in the assay with UO-31, 2.3 µM (inactive); in the assay with MDA-MB-231, > 42.1 µM (inactive); with CAKI-1, 3.18 µM (inactive); with T47D, 4.92 µM (inactive). In addition, the GI50 with KM12 is 4.93 µM (inactive); in the assay on 786-0, 3.78 µM (inactive).
Consider `COc1cccc2c1C(=O)C1=C(C2=O)C(O)CC(C)(C)O1` (stereo not given), for which the GI50 in the assay on SF-295 was 70.3 µM (inactive); in the assay on Hs-578T, > 100 µM (inactive); in the assay on SNB-75, > 100 µM (inactive); in the assay with IGROV-1 it was 31.6 µM (inactive); in the assay on MDA-MB-435, 20 µM (inactive); with HOP-92, 53.2 µM (inactive). Also, the GI50 in the assay with OVCAR-3 is 13.1 µM (inactive); in the assay with SN12C, 32.5 µM (inactive); with HCT-116, 24 µM (inactive); in the assay on NCI/ADR-RES it was 28.7 µM (inactive); with HCC 2998, 33.6 µM (inactive); with SF-268 it was 55.5 µM (inactive). Further, the GI50 with LOX IMVI is 24.3 µM (inactive); in the assay with SF-539 it was 37.9 µM (inactive); in the assay with UO-31, 58.9 µM (inactive); in the assay on MDA-MB-231, 25.6 µM (inactive); in the assay with CAKI-1 it was 50.7 µM (inactive); in the assay with T47D, 49.8 µM (inactive). Also, the GI50 with KM12 was 27.9 µM (inactive); with 786-0 it was 42.4 µM (inactive).
As to `C/C1=C/C(C)CC(C)OC(=O)C(C)NC(=O)C(Cc2ccc(O)c(I)c2)N(C)C(=O)C(C)NC(=O)C(C)C1` (stereo not given), the GI50 is < 0.0316 µM (active) with SF-295; < 0.01 µM (active) in the assay with Hs-578T; < 0.01 µM (active) in the assay with SNB-75; < 0.01 µM (active) with IGROV-1; < 0.01 µM (active) in the assay on MDA-MB-435; < 0.0134 µM (active) in the assay with HOP-92. Besides, the GI50 in the assay on OVCAR-3 was < 0.01 µM (active); in the assay with SN12C, < 0.0249 µM (active); in the assay with HCT-116, < 0.01 µM (active); in the assay with NCI/ADR-RES, 0.026 µM (active); in the assay on HCC 2998, < 0.01 µM (active); in the assay with SF-268, < 0.0166 µM (active). Besides, the GI50 is < 0.01 µM (active) in the assay with LOX IMVI; < 0.01 µM (active) in the assay on SF-539; 0.0127 µM (active) with UO-31; < 0.01 µM (active) with MDA-MB-231; < 0.01 µM (active) in the assay with CAKI-1; 0.0653 µM (active) with T47D. Also, the GI50 in the assay on KM12 and with 786-0 was < 0.01 µM (active) throughout.
Take `COc1cc2c(cc1O)CC[n+]1cc3c(OC)c(OC)ccc3cc1-2`: the GI50 in the assay on SF-295 is > 100 µM (inactive); in the assay with Hs-578T, > 100 µM (inactive); in the assay with SNB-75 it was > 100 µM (inactive); in the assay with IGROV-1, > 100 µM (inactive); in the assay with MDA-MB-435, > 100 µM (inactive); in the assay with HOP-92 it was 87.7 µM (inactive). For the same compound, the GI50 was 59.4 µM (inactive) with OVCAR-3; > 100 µM (inactive) in the assay on SN12C; > 100 µM (inactive) in the assay with HCT-116; > 100 µM (inactive) in the assay on NCI/ADR-RES; > 100 µM (inactive) in the assay with HCC 2998; > 100 µM (inactive) in the assay with SF-268. Also, the GI50 in the assay with LOX IMVI was > 100 µM (inactive); in the assay on SF-539 it was > 100 µM (inactive); in the assay on UO-31, > 100 µM (inactive); in the assay with MDA-MB-231, > 100 µM (inactive); with CAKI-1, > 100 µM (inactive); in the assay on T47D it was 94.4 µM (inactive). Moreover, the GI50 with KM12 was 76.7 µM (inactive); with 786-0, > 100 µM (inactive).
For the compound `CC(=O)NS(=O)(=O)c1ccc(NCc2cccc3c(=O)c4ccc(Cl)cc4oc23)cc1`, the GI50 in the assay with SF-295 is 51.4 µM (inactive); in the assay with Hs-578T, 25.4 µM (inactive); with SNB-75 it was 64 µM (inactive); in the assay on IGROV-1, 24.8 µM (inactive); in the assay on MDA-MB-435 it was 38.3 µM (inactive); with HOP-92, 16.6 µM (inactive). For the same compound, the GI50 with OVCAR-3 is 44.6 µM (inactive); in the assay on SN12C, > 65.6 µM (inactive); in the assay with HCT-116 it was > 26.7 µM (inactive); with NCI/ADR-RES, 31.6 µM (inactive); in the assay with HCC 2998 it was 38.5 µM (inactive); in the assay with SF-268, 30.8 µM (inactive). Further, the GI50 in the assay on LOX IMVI was > 33.2 µM (inactive); in the assay on SF-539, 17.1 µM (inactive); in the assay on UO-31, 25.4 µM (inactive); in the assay with MDA-MB-231, > 59 µM (inactive); with CAKI-1 it was 20.5 µM (inactive); in the assay with T47D, > 92.3 µM (inactive). Besides, the GI50 was 20.5 µM (inactive) in the assay on KM12 and > 55.8 µM (inactive) in the assay with 786-0.
`CC1=[N+](C)CCCN1C`: the GI50 in the assay with SF-295, in the assay on Hs-578T, in the assay with SNB-75, in the assay on IGROV-1, with MDA-MB-435 and in the assay with HOP-92 was > 100 µM (inactive) in each case. In addition, the GI50 in the assay with OVCAR-3, in the assay on SN12C, in the assay on HCT-116, in the assay with NCI/ADR-RES, with HCC 2998 and in the assay with SF-268 was > 100 µM (inactive) each time. Besides, the GI50 in the assay on LOX IMVI, with SF-539, with UO-31, with MDA-MB-231, in the assay on CAKI-1 and in the assay with T47D was > 100 µM (inactive) throughout. Moreover, the GI50 in the assay on KM12 and in the assay on 786-0 was > 100 µM (inactive) in each case.
